Assay results reported in publication PMC5727165, “A switch in nucleotide affinity governs activation of the Src and Tec family kinases” (Scientific Reports, 2017).
“And” between values parts separate entries of the source, which are not always exact repeats. Equal entries are not always repeated.

What was measured:
Itk^32K = biological target: T1, Itk^32K (Homo sapiens, UniProt Q08881); assay: Fluorescence anisotropy binding of Mant-labelled nucleotides; conditions: wild type Itk^32K; 40 μM Mant-nucleotide, 20 °C
T1 construct: Human Itk^171–620 (Itk^32K); GST (cleaved yes); made in house; host or cells: baculovirus-infected Sf9 insect cells
T1 sequence (Q08881 171-620): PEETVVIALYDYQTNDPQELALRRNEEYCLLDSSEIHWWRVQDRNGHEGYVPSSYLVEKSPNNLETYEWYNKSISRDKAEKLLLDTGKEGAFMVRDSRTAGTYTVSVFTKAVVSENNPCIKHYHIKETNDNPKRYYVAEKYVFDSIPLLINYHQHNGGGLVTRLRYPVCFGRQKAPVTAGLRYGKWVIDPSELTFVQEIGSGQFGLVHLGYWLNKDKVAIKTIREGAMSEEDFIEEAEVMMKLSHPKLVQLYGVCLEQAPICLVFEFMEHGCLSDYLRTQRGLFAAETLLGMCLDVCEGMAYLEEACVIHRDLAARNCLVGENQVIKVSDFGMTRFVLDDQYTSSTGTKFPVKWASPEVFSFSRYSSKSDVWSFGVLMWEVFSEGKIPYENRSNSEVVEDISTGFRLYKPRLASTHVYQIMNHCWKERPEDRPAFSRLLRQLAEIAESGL
Text: (§1) To characterise the nucleotide binding of Itk and Src, we purified recombinant wild type and mutant constructs of Itk and Src containing their respective SH3, SH2, and kinase domains (from here on referred to as Itk^32K, Src^32K, and Src^32KΔC, Fig. 1a). We confirmed the mass and homogeneity of isolated species by high-resolution anion exchange chromatography, intact mass spectrometry, and Western blotting with phospho-specific antibodies (Supplementary Figs 1–3). We performed fluorescence anisotropy measurements using Mant-labelled nucleotides. […] To avoid autophosphorylation during the course of the titration, we used the non-hydrolysable ATP analogue AMPPNP. […] Src^32K bound ADP approximately 6-fold more tightly than AMPPNP (Supplementary Fig. 4d).
(§2) Human Itk^171–620 (Itk^32K), mouse Src^85-535 (Src^32K), and mouse Src^85-523 (Src^32KΔC) as well as their respective point mutants were expressed as GST fusions in baculovirus-infected Sf9 insect cells. For the generation of Tyr527-phosphorylated Src^85-535, the protein was co-expressed with human Csk using pFastBac Dual (Invitrogen). Proteins were purified by sequential glutathione-sepharose affinity chromatography, TEV cleavage, high-resolution anion exchange, and size exclusion chromatography in a final buffer of 50 mM Tris, pH 7.5, 200 mM NaCl, 1 mM TCEP, 1% (v/v) glycerol.
(§3) The binding constants for ADP and AMPPNP were determined for Src and Itk proteins by fluorescence anisotropy, using 2′/3′-Mant-labelled nucleotides (Jena Bioscience). Increasing concentrations of Itk^32K, Itk^L351A or Src^32K were incubated with 40 μM Mant-nucleotide in 30 mM Tris pH 7.5, 200 mM NaCl, 5 mM MgCl2, and 1 mM TCEP. Measurements were made with a Perkin Elmer LS50B fluorimeter (λex = 355 nm, λem = 447 nm) at 20 °C. For each data point 50–60 measurements, each with an integration time of 1 s, were averaged. For competition nucleotide displacement assays, 40–80 μM of protein was incubated with 40 μM Mant-ADP until equilibrium was established. Unlabelled nucleotide was titrated into the reaction and fluorescence anisotropy monitored. The equilibrium inhibition constant for the unlabelled nucleotide was calculated from the fitted curve.

Src^32K = biological target: T2, Src^32K (Mus musculus, UniProt P05480); assay: as above
T2 construct: mouse Src^85-535 (Src^32K); GST (cleaved yes); made in house; host or cells: baculovirus-infected Sf9 insect cells, co-expressed with human Csk
T2 sequence (P05480 85-535): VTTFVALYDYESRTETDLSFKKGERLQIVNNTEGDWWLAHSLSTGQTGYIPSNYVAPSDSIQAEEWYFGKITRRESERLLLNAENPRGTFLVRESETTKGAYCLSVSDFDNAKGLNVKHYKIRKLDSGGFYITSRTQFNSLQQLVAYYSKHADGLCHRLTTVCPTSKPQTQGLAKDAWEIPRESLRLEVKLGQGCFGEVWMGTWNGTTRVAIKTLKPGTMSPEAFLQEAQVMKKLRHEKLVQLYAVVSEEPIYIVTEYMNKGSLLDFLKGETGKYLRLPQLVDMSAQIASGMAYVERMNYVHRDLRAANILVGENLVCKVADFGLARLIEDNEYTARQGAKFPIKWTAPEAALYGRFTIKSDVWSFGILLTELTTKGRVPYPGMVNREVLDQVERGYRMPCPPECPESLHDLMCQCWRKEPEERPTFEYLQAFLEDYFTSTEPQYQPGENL
Text: as §1, §2, §3

Question: Which Kd (Itk^32K) does the source give for `Nc1ncnc2c1ncn2[C@@H]1O[C@H](COP(=O)(O)OP(=O)(O)O)[C@@H](O)[C@H]1O` [ADP] here?
Answer: 23.7 µM and 24 µM

Question: What about the Kd (Src^32K; Mant-labelled nucleotide) of the same compound?
Answer: 66 µM

Question: And the “fold difference in affinity, ADP tighter than AMPPNP” value (Src^32K; direct Mant-nucleotide binding)?
Answer: approximately 6 fold
